The source of these data is ChEMBL document CHEMBL1201862, “PubChem BioAssay data set” (2004).

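48-hour exposure; five concentrations; linearly interpolated endpoints. At the GI50, growth is halved.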 Calls of active or inactive are those of the source. No stated cut-off is given here; in the data, active = GI50 up to about 1.1 µM and inactive = higher. *1 amine or outer side, *2 acyl side, *3 side chain or, on linkers, in order; H or OH if unused. Where a SMILES comes first, the peptide text is derived from it. Bridges are numbered along the chain shown (N, C = ends). [ ]: non-standard residue; d: D form. The star is where a group is joined. X36 = O=C(C(CCCCNO[*:3])N[*:1])[*:2]; Fmoc = O=C(OCC1c2ccccc2-c2ccccc21)*

Assay in all cases: NCI tumour cell line growth inhibition, 48 h
Experiment [1] deals with HOP-62.
The subject of experiment [2] is SF-268.
Experiment [3] deals with SF-539.
Experiment [4] has as its system LOX IMVI.
Experiment [5] deals with OVCAR-3.
Experiment [6] concerns COLO 205.
The test system of experiment [7] is UACC-257.
The test system of experiment [8] is RXF 393.
In experiment [9] the test system is SW-620.
The subject of experiment [10] is SK-MEL-28.
Experiment [11] deals with CAKI-1.
Experiment [12] deals with 786-0.
The subject of experiment [13] is SN12C.
In experiment [14] the test system is HCC 2998.
The test system of experiment [15] is OVCAR-5.
Experiment [16] has as its system SK-OV-3.
Experiment [17] deals with MCF7.
The subject of experiment [18] is MDA-N.
Experiment [19] deals with MDA-MB-435.

For `COc1ccc(NC(=O)C2=CC(=O)c3ccc(O)cc3C2=O)c(OC)c1`, the GI50 in experiment [1], in experiment [2], in experiment [3], in [4], in [5] and in experiment [6] was > 100 µM (inactive) each time. For the same compound, the GI50 in experiment [7], in experiment [8], in experiment [9], in [10], in experiment [11] and in experiment [12] was > 100 µM (inactive) throughout. The GI50 in [13], in [14] and in [15] was > 100 µM (inactive) throughout.

Regarding `Nc1ccc(CCN2CCN(c3cccc(C(F)(F)F)c3)CC2)cc1`, the GI50 in [1] was > 100 µM (inactive); in experiment [2] it was > 100 µM (inactive); in experiment [3] it was > 100 µM (inactive); in experiment [4] it was > 100 µM (inactive); in experiment [5] it was 91.4 µM (inactive); in experiment [6], > 100 µM (inactive). Further, the GI50 in experiment [7] is 47 µM (inactive); in experiment [8], 89.5 µM (inactive); in experiment [10], > 100 µM (inactive); in [16], > 100 µM (inactive); in experiment [11], > 100 µM (inactive); in experiment [12] it was 84.3 µM (inactive). Also, the GI50 in [13] is > 100 µM (inactive); in [14], 17.3 µM (inactive); in [15] it was > 100 µM (inactive).

Consider `COc1ccc(/C=N/N=C(\N)NO)c(OC)c1C`, for which the GI50 in [1] is 7.19 µM (inactive); in [2] it was 15.4 µM (inactive); in [3], 19.2 µM (inactive); in experiment [4], 4.81 µM (inactive); in experiment [5] it was 7.96 µM (inactive); in experiment [6] it was 10.2 µM (inactive). For the same compound, the GI50 in experiment [7] is 22.2 µM (inactive); in experiment [8] it was 12.2 µM (inactive); in experiment [9], 22.8 µM (inactive); in experiment [10], 5.57 µM (inactive); in [16], 34.4 µM (inactive); in experiment [11] it was 8.49 µM (inactive). Further, the GI50 in experiment [12] was 16.1 µM (inactive); in experiment [13], 26 µM (inactive); in experiment [14], 7.08 µM (inactive); in [15], 2.47 µM (inactive).

`CSc1nc2c(c(O)c(C)c(=O)n2C2OCC(OC(C)=O)C(OC(C)=O)C2OC(C)=O)c(=O)n1C` (configuration not stated): the GI50 in experiment [1], in [2], in [3], in experiment [4], in [5] and in [6] was > 100 µM (inactive) throughout. The GI50 in [7], in experiment [9], in [10], in experiment [16], in [11] and in experiment [12] was > 100 µM (inactive) throughout. Moreover, the GI50 in experiment [13] and in experiment [15] was > 100 µM (inactive) each time.

`O=S(=O)(c1cc(Cl)ccc1Cl)N1CCN(c2cccc(Cl)c2)CC1`: the GI50 in experiment [1], in experiment [2], in [3], in experiment [4], in [5] and in [7] was > 100 µM (inactive) throughout. The GI50 in experiment [8] is > 100 µM (inactive); in experiment [17] it was > 100 µM (inactive); in [9], > 100 µM (inactive); in experiment [10], > 100 µM (inactive); in [18], 59.2 µM (inactive); in experiment [11], > 100 µM (inactive). For the same compound, the GI50 in [12], in [13], in experiment [14] and in experiment [15] was > 100 µM (inactive) throughout.

As for `Cc1n[nH]c(=O)n1/N=C/c1ccc([N+](=O)[O-])o1`, the GI50 was 26.9 µM (inactive) in experiment [1]; 17.4 µM (inactive) in experiment [2]; 19.1 µM (inactive) in [3]; 8.85 µM (inactive) in experiment [4]; 5.58 µM (inactive) in experiment [5]; 8.59 µM (inactive) in experiment [6]. The GI50 is 5.3 µM (inactive) in experiment [19]; 13 µM (inactive) in [7]; 0.881 µM (active) in experiment [8]; 18 µM (inactive) in [17]; 13.9 µM (inactive) in [9]; 11.2 µM (inactive) in experiment [10]. The GI50 in experiment [16] was 28.2 µM (inactive); in [11] it was 7.8 µM (inactive); in experiment [12], 15.1 µM (inactive); in [13] it was 5.64 µM (inactive); in experiment [14], 20.6 µM (inactive); in [15], 21.4 µM (inactive).

In the case of `CC(=O)Oc1c(-c2ccccc2)sc2ccccc12`, the GI50 in experiment [1] is 22.3 µM (inactive); in experiment [2] it was 23 µM (inactive); in [3] it was 20.6 µM (inactive); in experiment [4] it was 13.5 µM (inactive); in experiment [5], > 10 µM (inactive); in experiment [6], 15.6 µM (inactive). The GI50 in [19] was 25 µM (inactive); in experiment [7], 12.5 µM (inactive); in experiment [8], 13.6 µM (inactive); in experiment [17] it was 27.6 µM (inactive); in [9], 36.1 µM (inactive); in experiment [10], 21.3 µM (inactive). The GI50 in [11] was 1.33 µM (inactive); in experiment [12] it was 15.6 µM (inactive); in [14], 17.1 µM (inactive); in experiment [15] it was 29.2 µM (inactive).

Regarding `Cc1oc2nc(N(C)C)n3nnnc3c2c1C`, the GI50 in experiment [2], in [3], in [4], in experiment [6], in [19] and in experiment [7] was > 100 µM (inactive) throughout. Besides, the GI50 is 57.4 µM (inactive) in [8]; > 100 µM (inactive) in [17]; > 100 µM (inactive) in [9]; > 100 µM (inactive) in experiment [10]; 85.7 µM (inactive) in [16]; > 100 µM (inactive) in [11]. In addition, the GI50 in [12] was 70.1 µM (inactive); in experiment [13] it was > 100 µM (inactive); in [14], > 100 µM (inactive); in experiment [15] it was > 100 µM (inactive).

As for `CC(=O)NC1C(OC2C(CO)OC(OCC3OC(n4ccc(N)nc4=O)C(O)C3O)C(NC(C)=O)C2O)OC(CO)C(O)C1O` (configuration not stated), the GI50 in experiment [1], in experiment [2], in experiment [3], in [4], in experiment [5] and in experiment [6] was > 100 µM (inactive) each time. For the same compound, the GI50 in [19] was > 100 µM (inactive); in [7], > 100 µM (inactive); in experiment [8], > 100 µM (inactive); in [17], > 94.6 µM (inactive); in experiment [9], > 100 µM (inactive); in experiment [10], > 100 µM (inactive). Also, the GI50 in experiment [16], in experiment [11], in [12], in experiment [13] and in experiment [15] was > 100 µM (inactive) throughout.

In the case of `[O-][S+](c1ccccc1)c1ccc(/N=N/O)nc1` (configuration not stated), the GI50 in experiment [1], in experiment [2], in experiment [3], in experiment [5], in experiment [6] and in [7] was > 100 µM (inactive) in each case. In addition, the GI50 in [8] is 0.213 µM (active); in [17], > 100 µM (inactive); in [9], > 100 µM (inactive); in experiment [10], > 100 µM (inactive); in experiment [18], > 100 µM (inactive); in experiment [16] it was > 100 µM (inactive). Besides, the GI50 in [11], in experiment [12], in experiment [13] and in experiment [15] was > 100 µM (inactive) throughout.

As to `O=C1CCC2(c3ccc(F)cc3)Nc3ccccc3N12` (configuration not stated), the GI50 in experiment [1], in experiment [2], in experiment [3], in experiment [4], in experiment [5] and in experiment [6] was > 100 µM (inactive) in each case. Also, the GI50 in experiment [7], in [8], in experiment [9], in experiment [10], in [16] and in experiment [11] was > 100 µM (inactive) each time. Besides, the GI50 in experiment [12], in [13], in [14] and in experiment [15] was > 100 µM (inactive) each time.

Take `NC(=O)CNC(=O)C1CCCN1C(=O)C1CCCCNOC(=O)CCC(NC(=O)OCC2c3ccccc3-c3ccccc32)C(=O)NC(Cc2c[nH]c3ccccc23)C(=O)N1` (configuration not stated) (Fmoc-EW[X36]PG-NH2; ester 1-3; configuration not given here): the GI50 in experiment [1], in experiment [2], in [3], in [4], in [5] and in [6] was > 100 µM (inactive) in each case. Moreover, the GI50 in [19] was > 100 µM (inactive); in experiment [7] it was > 100 µM (inactive); in [8], > 100 µM (inactive); in [17], 47.9 µM (inactive); in [9], > 100 µM (inactive); in [10], > 100 µM (inactive). For the same compound, the GI50 was 63.4 µM (inactive) in [16]; > 100 µM (inactive) in experiment [12]; > 100 µM (inactive) in experiment [13]; > 100 µM (inactive) in experiment [14]; > 100 µM (inactive) in experiment [15].
